Values quoted from earlier work as cited in patent US20230110028A1, “OXYBATE POLYETHYLENE GLYCOL PRODRUGS” (Tris Pharma, Inc., priority 2021, published 2023).

Key:
[1] = forms gamma-butyrolactone (GBL) at pH below 7
[2] = in vivo
[3] = not given; remark: listed apart in the source

Molecule | Solubility [3] [mg/mL] | further results
O=C(O)CCCO [Sodium oxybate] | – | solubility in aqueous solutions: very soluble; stability in acidic medium [1]: unstable
O=C(O)CCCO [oxybate, gamma hydroxybutyrate] | – | elimination half-life [2]: 30 to 40 min
Hydroxypropyl-β-cyclodextrin | ≥600 | –
Randomly methylated-β-cyclodextrin | ≥500 | –
Sulfobutyl ether-β-cyclodextrin | ≥500 | –
